Results: patent US7704995B2 (Exelixis, Inc., priority 2003, dated 2010)
Read-outs that look alike come from different tables or passages of the source.

Biological target: T1, Chk1 (Homo sapiens, UniProt O14757)
T1 construct: purchased Upstate Biotechnology
T1 sequence (O14757 1-476): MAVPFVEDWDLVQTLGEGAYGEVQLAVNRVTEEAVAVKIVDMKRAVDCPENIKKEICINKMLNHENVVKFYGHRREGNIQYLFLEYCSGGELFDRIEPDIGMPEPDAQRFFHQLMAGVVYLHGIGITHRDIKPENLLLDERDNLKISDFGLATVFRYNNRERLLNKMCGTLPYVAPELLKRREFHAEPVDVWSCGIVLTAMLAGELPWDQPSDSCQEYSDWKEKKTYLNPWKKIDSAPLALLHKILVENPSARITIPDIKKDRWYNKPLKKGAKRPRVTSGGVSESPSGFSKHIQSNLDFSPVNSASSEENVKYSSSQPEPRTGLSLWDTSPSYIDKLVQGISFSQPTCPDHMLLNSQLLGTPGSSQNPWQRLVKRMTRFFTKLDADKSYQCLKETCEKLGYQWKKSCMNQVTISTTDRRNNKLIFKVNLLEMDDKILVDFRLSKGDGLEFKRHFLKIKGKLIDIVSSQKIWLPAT
Test: Chk1 kinase assay: incorporation of γ-33P ATP into immobilized myelin basic protein
Assay type: biochemical
Conditions: read-out: Chk1 IC50
Method in brief: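 MBP coated on plates (20 μg/ml) was phosphorylated by Chk1 (10 nM) or Chk2 (20 nM) with γ-33P ATP plus 10 μM (Chk1) or 30 μM (Chk2) unlabeled ATP, 1 h at room temperature, 1% DMSO. Bound radioactivity was counted by scintillation after washing; IC50 or Ki derived from fitted rate data.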

[1] = Table 11, Chk1 only, class symbols A-D

| Compound | IC50 (Table 11, Chk1 only) [µM] | IC50 [µM] | other results |
| --- | --- | --- | --- |
| Nc1ncc(-c2ccccc2)nc1C(=O)NC1CCCCC1 [Example 14, 3-amino-N-cyclohexyl-6-phenylpyrazine-2-carboxamide] | – | ≥ 10 | – |
| Nc1ncc(-c2cccc(C(=O)NCc3cccc(Cl)c3)c2)nc1-c1nnc([C@H]2CCCNC2)[nH]1 [Example 837, 3-(5-amino-6-{5-[(3S)-piperidin-3-yl]-4H-1,2,4-triazol-3-yl}pyrazin-2-yl)-N-[(3-chlorophenyl)methyl]benzamide] | – | – | IC50 [1]: < 0.05 µM |
| COc1cccc(OC)c1CNC(=O)c1cccc(-c2cnc(N)c(C(=O)N[C@H]3CCCNC3)n2)c1 [Example 1026, 3-amino-6-{3-[({[2,6-bis(methyloxy)phenyl]methyl}amino)carbonyl]phenyl}-N-[(3S)-piperidin-3-yl]pyrazine-2-carboxamide] | – | – | IC50 [1]: 0.05 to 1 µM |
| Nc1ncc(-c2cccc(CNC(=O)Nc3ccc(Cl)cc3)c2)nc1C(=O)N[C@H]1CCCNC1 [Example 971, 3-amino-6-{3-[({[(4-chlorophenyl)amino]carbonyl}amino)methyl]phenyl}-N-[(3S)-piperidin-3-yl]pyrazine-2-carboxamide] | – | – | IC50 [1]: < 0.05 µM |
| CNC(=O)c1nc(-c2ccc(O)cc2)cnc1N [Example 236, 3-amino-6-(4-hydroxyphenyl)-N-methylpyrazine-2-carboxamide] | – | 0.05 to 1 | – |
| CNC(=O)c1nc(-c2cccc(C(=O)NCc3ccccc3SC)c2)cnc1N [Example 356, 3-amino-N-methyl-6-{3-[({[2-(methylthio)phenyl]methyl}amino)carbonyl]phenyl}pyrazine-2-carboxamide] | – | < 0.05 | – |
| CNC(=O)c1nc(-c2cccc(C(=O)N[C@@H]3CCc4ccccc43)c2)cnc1N [Example 96, 3-amino-6-(3-{[(1R)-2,3-dihydro-1H-inden-1-ylamino]carbonyl}phenyl)-N-methylpyrazine-2-carboxamide] | – | 1 to 10 | – |
| CNC(=O)c1nc(-c2cccc(C(=O)NCc3cccc(Cl)c3)c2)cnc1N [Example 125, 3-amino-6-[3-({[(3-chlorophenyl)methyl]amino}carbonyl)phenyl]-N-methylpyrazine-2-carboxamide] | – | 0.05 to 1 | – |
| Cc1cc(C(=O)Nc2cccc(-c3cnc(N)c(C(=O)N[C@H]4CCCNC4)n3)c2)n(C)n1 [Example 902, 3-amino-6-(3-{[(1,3-dimethyl-1H-pyrazol-5-yl)carbonyl]amino}phenyl)-N-[(3S)-piperidin-3-yl]pyrazine-2-carboxamide] | – | – | IC50 [1]: < 0.05 µM |
| Nc1ncc(-c2cccc(CNC(=O)C3COc4ccccc4O3)c2)nc1C(=O)N[C@H]1CCCNC1 (stereo partly drawn) [Example 939, 3-amino-6-(3-{[(2,3-dihydro-1,4-benzodioxin-2-ylcarbonyl)amino]methyl}phenyl)-N-[(3S)-piperidin-3-yl]pyrazine-2-carboxamide] | – | – | IC50 [1]: < 0.05 µM |
| CNC(=O)c1nc(-c2ccc(C(=O)NCc3ccccc3)cc2)cnc1N [Example 150, 3-amino-N-methyl-6-(4-{[(phenylmethyl)amino]carbonyl}phenyl)pyrazine-2-carboxamide] | – | 1 to 10 | – |
| CNC(=O)c1nc(-c2cccc(S(C)(=O)=O)c2)cnc1N [Example 234, 3-amino-N-methyl-6-[3-(methylsulfonyl)phenyl]pyrazine-2-carboxamide] | – | 1 to 10 | – |
| CNC(=O)c1nc(-c2cc(C)cc(C)c2)cnc1N [Example 78, 3-amino-6-(3,5-dimethylphenyl)-N-methylpyrazine-2-carboxamide] | – | 1 to 10 | – |
| CNC(=O)c1nc(-c2cccc(C(=O)NCc3ccc(N)cc3)c2)cnc1N [Example 230, 3-amino-6-[3-({[(4-aminophenyl)methyl]amino}carbonyl)phenyl]-N-methylpyrazine-2-carboxamide] | – | 0.05 to 1 | – |
| CNC(=O)c1nc(-c2cccc(C(=O)NCc3cc(F)c(F)cc3F)c2)cnc1N [Example 251, 3-amino-N-methyl-6-[3-({[(2,4,5-trifluorophenyl)methyl]amino}carbonyl)phenyl]pyrazine-2-carboxamide] | – | 0.05 to 1 | – |
| CCOC(=O)Nc1cccc(-c2cnc(N)c(C(=O)NC)n2)c1 [Example 319, ethyl (3-{5-amino-6-[(methylamino)carbonyl]pyrazin-2-yl}phenyl)carbamate] | – | 0.05 to 1 | – |
| CNC(=O)c1nc(-c2cccc(C(=O)N[C@@H]3CCCc4ccccc43)c2)cnc1N [Example 160, 3-amino-N-methyl-6-(3-{[(1R)-1,2,3,4-tetrahydronaphthalen-1-ylamino]carbonyl}phenyl)pyrazine-2-carboxamide] | – | 1 to 10 | – |
| CNC(=O)c1nc(-c2cccc(C(=O)NCC(C)(C)C)c2)cnc1N [Example 252, 3-amino-6-(3-{[(2,2-dimethylpropyl)amino]carbonyl}phenyl)-N-methylpyrazine-2-carboxamide] | – | 1 to 10 | – |
| CNC(=O)c1nc(-c2cccc(C(=O)NCc3ccccc3-c3ccccc3)c2)cnc1N [Example 180, 3-amino-6-(3-{[(biphenyl-2-ylmethyl)amino]carbonyl}phenyl)-N-methylpyrazine-2-carboxamide] | – | < 0.05 | – |

Now from value to molecule, other results behind:

| IC50 (Table 11, Chk1 only) [µM] | IC50 [µM] | Compound | other results |
| --- | --- | --- | --- |
| ≥ 10 | – | Nc1ncc(-c2cccc(C(=O)NCc3ccccc3)c2)nc1C(=O)NC1CCCCC1NC(=O)c1nc(-c2cccc(C(=O)NCc3ccccc3)c2)cnc1N (centres unmarked) [Example 660, N,N′-cyclohexane-1,2-diylbis[3-amino-6-(3-{[(phenylmethyl)amino]carbonyl}phenyl)pyrazine-2-carboxamide]] | – |
| 1 to 10 | – | CCN1CC[C@H](NC(=O)c2nc(-c3cccc(C(=O)N[C@H]4c5ccccc5C[C@H]4O)c3)cnc2N)C1 [Example 727, 3-amino-N-[(3S)-1-ethylpyrrolidin-3-yl]-6-[3-({[(1S,2R)-2-hydroxy-2,3-dihydro-1H-inden-1-yl]amino}carbonyl)phenyl]pyrazine-2-carboxamide] | – |
| < 0.05 | – | CNC(=O)c1nc(-c2cccc(CNC3CCc4cc(Cl)ccc43)c2)cnc1N (centres unmarked) [Example 477, 3-amino-6-(3-{[(5-chloro-2,3-dihydro-1H-inden-1-yl)amino]methyl}phenyl)-N-methylpyrazine-2-carboxamide] | – |
| ≥ 10 | – | CC(C)(C)OC(=O)N1CC[C@H](NC(=O)c2nc(-c3cccc(C(=O)N[C@H]4CCc5ccccc54)c3)cnc2N)C1 [Example 709, 1,1-dimethylethyl (3S)-3-({[3-amino-6-(3-{[(1S)-2,3-dihydro-1H-inden-1-ylamino]carbonyl}phenyl)pyrazin-2-yl]carbonyl}amino)pyrrolidine-1-carboxylate] | – |
| – | 0.05 to 1 | CNC(=O)c1nc(-c2cccc(C(=O)N[C@@H]3CCN(Cc4ccccc4)C3)c2)cnc1NCc1ccccc1 [Example 363, N-methyl-3-[(phenylmethyl)amino]-6-[3-({[(3R)-1-(phenylmethyl)pyrrolidin-3-yl]amino}carbonyl)phenyl]pyrazine-2-carboxamide] | – |
| ≥ 10 | – | Cn1nc(-c2nc(-c3cccc(C(=O)N[C@H]4CCc5ccccc54)c3)cnc2N)nc1C1CCCN(C(=O)OCc2ccccc2)C1 (stereo partly drawn) [Example 721, phenylmethyl 3-{3-[3-amino-6-(3-{[(1S)-2,3-dihydro-1H-inden-1-ylamino]carbonyl}phenyl)pyrazin-2-yl]-1-methyl-1H-1,2,4-triazol-5-yl}piperidine-1-carboxylate] | – |
| 0.05 to 1 | – | CNC(=O)c1nc(-c2cccc(C(=O)NCc3ccccc3)c2)cnc1N [Example 441, 3-Amino-6-(3-benzylcarbamoyl-phenyl)-pyrazine-2-carboxylic acid methylamide] | – |
| 1 to 10 | – | Nc1ncc(-c2cccc(C(=O)N[C@H]3CCc4ccccc43)c2)nc1-c1n[nH]c(CCOCc2ccccc2)n1 [Example 771, 3-[5-amino-6-(5-{2-[(phenylmethyl)oxy]ethyl}-1H-1,2,4-triazol-3-yl)pyrazin-2-yl]-N-[(1S)-2,3-dihydro-1H-inden-1-yl]benzamide] | – |
| 0.05 to 1 | – | NNC(=O)c1nc(-c2cccc(CN[C@H]3CCc4ccccc43)c2)cnc1N [Example 529, 3-amino-6-(3-{[(1S)-2,3-dihydro-1H-inden-1-ylamino]methyl}phenyl)pyrazine-2-carbohydrazide] | – |
| ≥ 10 | – | CC(C)(C)OC(=O)N1CCN(C(=O)c2nc(-c3cccc(C(=O)NCc4ccccc4)c3)cnc2N)CC1 [Example 592, 1,1-dimethylethyl 4-{[3-amino-6-(3-{[(phenylmethyl)amino]carbonyl}phenyl)pyrazin-2-yl]carbonyl}piperazine-1-carboxylate] | – |
| 0.05 to 1 | – | CNC(=O)c1nc(-c2cccc(CNC3Cc4ccc(Br)cc4C3)c2)cnc1N (centres unmarked) [Example 456, 3-amino-6-(3-{[(5-bromo-2,3-dihydro-1H-inden-2-yl)amino]methyl}phenyl)-N-methylpyrazine-2-carboxamide] | – |
| 0.05 to 1 | – | CNC(=O)c1nc(-c2cccc(CN[C@@H](CO)c3ccccc3)c2)cnc1N [Example 428, 3-amino-6-[3-({[(1R)-2-hydroxy-1-phenylethyl]amino}methyl)phenyl]-N-methylpyrazine-2-carboxamide] | – |
| 1 to 10 | – | CC(C)(C)OC(=O)N1CC[C@H](NC(=O)c2nc(-c3cccc(C(=O)NCc4cccnc4)c3)cnc2N)C1 [Example 758, 1,1-dimethylethyl (3S)-3-({[3-amino-6-(3-{[(pyridin-3-ylmethyl)amino]carbonyl}phenyl)pyrazin-2-yl]carbonyl}amino)pyrrolidine-1-carboxylate] | – |
